Measured values published in PMC3311999 (2011).

Molecular target: PI3K (PIK3CA/PIK3R1) (Homo sapiens, UniProt P42336)
Experiment: Michaelis-Menten kinetics
Format: biochemical

Sequence of PI3K (PIK3CA/PIK3R1) (P42336 whole entry): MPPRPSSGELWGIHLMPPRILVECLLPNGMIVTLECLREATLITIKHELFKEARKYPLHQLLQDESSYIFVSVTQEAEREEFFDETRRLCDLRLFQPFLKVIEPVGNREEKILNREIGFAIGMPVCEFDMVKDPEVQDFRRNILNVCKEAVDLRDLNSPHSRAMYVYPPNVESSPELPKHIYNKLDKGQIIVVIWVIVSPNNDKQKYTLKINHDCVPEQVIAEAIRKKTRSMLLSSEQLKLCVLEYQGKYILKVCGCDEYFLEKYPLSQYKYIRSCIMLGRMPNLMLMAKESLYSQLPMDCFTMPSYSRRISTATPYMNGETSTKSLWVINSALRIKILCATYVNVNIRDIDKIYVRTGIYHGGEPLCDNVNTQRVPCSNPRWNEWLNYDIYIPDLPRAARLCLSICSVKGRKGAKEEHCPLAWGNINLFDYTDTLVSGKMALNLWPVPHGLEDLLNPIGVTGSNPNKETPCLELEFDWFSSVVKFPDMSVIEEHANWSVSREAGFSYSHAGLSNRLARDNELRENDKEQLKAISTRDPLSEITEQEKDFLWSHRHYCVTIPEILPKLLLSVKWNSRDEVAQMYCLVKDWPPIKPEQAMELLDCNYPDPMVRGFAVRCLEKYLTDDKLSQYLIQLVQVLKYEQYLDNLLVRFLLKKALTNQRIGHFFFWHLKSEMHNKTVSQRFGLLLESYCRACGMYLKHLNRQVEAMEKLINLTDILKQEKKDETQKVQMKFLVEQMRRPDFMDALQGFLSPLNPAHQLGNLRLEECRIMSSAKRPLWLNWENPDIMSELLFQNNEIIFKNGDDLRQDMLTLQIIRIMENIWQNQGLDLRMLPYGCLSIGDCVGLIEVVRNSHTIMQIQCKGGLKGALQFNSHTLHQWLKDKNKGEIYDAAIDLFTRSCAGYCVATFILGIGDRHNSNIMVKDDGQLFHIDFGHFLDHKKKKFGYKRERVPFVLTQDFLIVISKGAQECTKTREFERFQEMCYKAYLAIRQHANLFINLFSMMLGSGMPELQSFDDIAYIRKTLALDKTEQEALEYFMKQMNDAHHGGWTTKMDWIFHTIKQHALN
Sequence of PI3K (PIK3CA/PIK3R1) (P27986 2-724 partner): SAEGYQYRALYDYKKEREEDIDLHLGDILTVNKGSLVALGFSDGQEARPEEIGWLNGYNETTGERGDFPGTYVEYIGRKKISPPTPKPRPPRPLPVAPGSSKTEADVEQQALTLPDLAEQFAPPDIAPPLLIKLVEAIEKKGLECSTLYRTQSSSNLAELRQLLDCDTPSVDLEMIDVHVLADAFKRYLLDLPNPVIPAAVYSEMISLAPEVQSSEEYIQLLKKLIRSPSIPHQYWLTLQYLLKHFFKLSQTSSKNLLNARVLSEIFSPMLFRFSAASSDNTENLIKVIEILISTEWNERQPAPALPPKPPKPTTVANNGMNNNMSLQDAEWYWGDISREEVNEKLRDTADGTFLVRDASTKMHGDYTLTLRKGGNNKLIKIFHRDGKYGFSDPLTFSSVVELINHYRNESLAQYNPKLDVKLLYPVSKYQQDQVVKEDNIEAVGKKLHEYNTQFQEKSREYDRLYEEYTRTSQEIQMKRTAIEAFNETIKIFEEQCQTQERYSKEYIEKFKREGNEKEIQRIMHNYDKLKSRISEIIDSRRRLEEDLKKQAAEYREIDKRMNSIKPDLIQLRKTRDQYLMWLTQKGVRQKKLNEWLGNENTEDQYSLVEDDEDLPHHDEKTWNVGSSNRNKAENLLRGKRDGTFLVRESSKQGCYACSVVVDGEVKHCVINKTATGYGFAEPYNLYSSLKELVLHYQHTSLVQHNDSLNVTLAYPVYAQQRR

## FL-PIP2
  Km: 44.8 ± 9.8 µM

## BODIPY-PIP2
  Km: 68.7 ± 5.2 µM
